Assay results reported in US20220347175A1, “PYRIDAZINONE DERIVATIVE” (Sumitomo Dainippon Pharma Co., Ltd., priority 2018, published 2022).
Like-named read-outs stand apart in the source and are kept apart here. Values belong to the compound of their own block, whether it stands above or below them.

Molecular target: T1, human Nav1.1 (Homo sapiens, UniProt P35498)
T1 construct: host or cells: HEK293
Experiment: Amplification of Nav1.1-derived voltage-dependent sodium current (Nav1.1 current), cell line stably expressing human Nav1.1, automated patch clamp
Assay type: cell-based
Conditions: for activation at 10 µM / activation at 1 µM / activation at 50 µM: read-out: Nav1.1 current amplification rate (%)
Description: Test 1: Evaluation of the Amplification of Nav1.1-Derived Voltage-Dependent Sodium Current (Nav1.1 Current) by Using a Cell Line Stably Expressing Human Nav1.1
(1) Preparation of Test Compounds
Test compounds were prepared by dissolving in DMSO at 200 times of the concentration at evaluation, and diluting the obtained solution to twice the concentration of evaluation with an extracellular fluid (135 mmol/L NaCl, 4 mmol/L KCl, 1 mmol/L MgCl2, 5 mmol/L CaCl2, 5 mmol/L Glucose, 10 mmol/L HEPES).
(2) Induction and Measurement of Nav1.1 Current
A HEK293 cell line stably expressing human Nav1.1 (cat #CYL3009, Millipore, USA, Human Embryonic Kidney 293) was purchased, and used in the present test. Nav1.1 current was induced by stimulating Ramp wave voltage. Detection of current which accompanied with the stimulation of voltage was carried out by a patch-clamp voltage-clamp method using HTS automated patch clamp system (SynchroPatch 768PE, Nanion Technologies GmbH, Germany). Only cells with more than 500 pA of voltage-dependent sodium channel current were used for the evaluation of the activity of compounds on Nav1.1 current because there was the possibility that currents derived from endogenous voltage-dependent sodium channels accounted for large proportion in cells with less than 500 pA of voltage-dependent sodium channel current which was induced by stimulating Ramp wave voltage.
(3) Pharmacologic Effect on Nav1.1 Current
The effect of test compounds on the amplification of Nav1.1-derived voltage-dependent sodium current was evaluated by using a cell line stably expressing human Nav1.1 and HTS automated patch clamp system. In other words, test compounds were added in an extracellular fluid containing 1% DMSO, and evaluated as a change of the peak value of Nav1.1 current and the area under the curve (AUC).
(4) Method for Pharmacological Evaluation
The Nav1.1 current amplification rates of test compounds were calculated by the following formula:
Nav1.1 current amplification rate (%)=100×[the peak value of Nav1.1 current or the area under the curve after the addition of test compounds]/[the peak value of Nav1.1 current or the area under the curve before the addition of test compounds]−100

[1] = 10 μmol/L compound (Test Result 5)
[2] = compound 50 μmol/L, HEK293 stably expressing human Nav1.1
[3] = concentration of each compound 1 μmol/L (Test Result 6)
[4] = Concentration 1 μM (Test Result 7)

SMILES: CC1(C)CCC(c2ccc(=O)n(CC(=O)Nc3ccc(C#N)cc3)n2)CC1 [Example 38, N-(4-Cyanophenyl)-2-[3-(4,4-dimethylcyclohexyl)-6-oxopyridazin-1(6H)-yl]acetamide]
activation at 10 µM [1]: 174%

SMILES: N#Cc1ccc(NC(=O)Cn2nc(C3=CCCCC3)ccc2=O)cc1 [Example 39]
Nav1.1 current amplification rate (%) [1]: 125%

SMILES: N#Cc1ccc(NC(=O)Cn2nc(C3CCCCC3)ccc2=O)cc1 [Example 40]
Nav1.1 current amplification rate (%) [1]: 20%

SMILES: CC1CC=C(c2ccc(=O)n(CC(=O)Nc3ccc(C#N)cc3)n2)CC1 (stereo not shown) [Example 41]
Nav1.1 current amplification rate (%) [1]: 324%

SMILES: CC1(C)CC=C(c2ccc(=O)n(CC(=O)Nc3ccc(C#N)cc3)n2)CC1 [Example 42]
Nav1.1 current amplification rate (%) [1]: 216%

SMILES: CC1CCC(c2ccc(=O)n(CC(=O)Nc3ccc(C#N)cc3)n2)CC1 (stereo not shown) [Example 43]
Nav1.1 current amplification rate (%) [1]: 174%

SMILES: CC1CCC(c2ccc(=O)n(CC(=O)Nc3ccc(C#N)cc3)n2)CC1 (stereo not shown) [Example 44]
Nav1.1 current amplification rate (%) [1]: 59%

SMILES: CC1(C)CCC=C(c2ccc(=O)n(CC(=O)Nc3ccc(C#N)cc3)n2)C1 [Example 45]
Nav1.1 current amplification rate (%) [1]: 202%

SMILES: CC1(C)CCCC(c2ccc(=O)n(CC(=O)Nc3ccc(C#N)cc3)n2)C1 (stereo not shown) [Example 46]
Nav1.1 current amplification rate (%) [1]: 85%

SMILES: N#Cc1ccc(NC(=O)Cn2nc(C3CCC(F)(F)CC3)ccc2=O)cc1 [Example 47]
Nav1.1 current amplification rate (%) [1]: 11%

SMILES: N#Cc1ccc(NC(=O)Cn2nc(C3=CCCCO3)ccc2=O)cc1 [Example 48]
Nav1.1 current amplification rate (%) [1]: 33%

SMILES: CC1C=C(c2ccc(=O)n(CC(=O)Nc3ccc(C#N)cc3)n2)CC(C)O1 (stereo not shown) [Example 49]
Nav1.1 current amplification rate (%) [1]: 2%

SMILES: Cc1ccc(-c2ccc(=O)n(CC(=O)Nc3cncnc3)n2)cc1 [Example 141]
Nav1.1 current amplification rate (%) [1]: 46%

SMILES: Cc1ccc(-c2ccc(=O)n(CC(=O)Nc3ccnnc3)n2)cc1 [Example 142]
Nav1.1 current amplification rate (%) [1]: 34%

SMILES: Cc1ccc(-c2ccc(=O)n(CC(=O)N3CCc4ccccc43)n2)cc1 [Example 157]
Nav1.1 current amplification rate (%) [2]: 29%

SMILES: CC1CCN(c2ccc(=O)n(CC(=O)N3CCN(c4ccccn4)CC3)n2)CC1 [Example 180]
activation at 10 µM [1]: 22%

SMILES: COc1cccc2c1CCN2C(=O)Cn1nc(N2CCC(C)(C)CC2)ccc1=O [Example 186]
activation at 10 µM [1]: 51%

SMILES: CC1(C)CCN(c2ccc(=O)n(CC(=O)Nc3ccn4ncnc4c3)n2)CC1 [Example 228]
activation at 1 µM [3]: 29%

SMILES: CC1CCN(c2ccc(=O)n(CC(=O)Nc3ccn4ncnc4c3)n2)CC1 [Example 229]
activation at 1 µM [3]: 34%

SMILES: O=C(Cn1nc(N2CCC3(CCC3)C2)ccc1=O)Nc1ccn2ncnc2c1 [Example 230]
activation at 1 µM [3]: 33%

SMILES: O=C(Cn1nc(N2CCC3(CCC3)CC2)ccc1=O)Nc1ccn2ncnc2c1 [Example 231]
activation at 1 µM [3]: 50%

SMILES: CC1CCN(c2ccc(=O)n(CC(=O)Nc3ccc4c(c3)NCC4)n2)CC1 [Example 233]
activation at 50 µM [2]: 47%

SMILES: O=C(Cn1nc(N2CCC3(CCC3)C2)ccc1=O)Nc1ccc2cncnc2c1 [Example 236, 2-[3-(6-azaspiro[3.4]octan-6-yl)-6-oxopyridazin-1(6H)-yl]-N-(quinazolin-7-yl)acetamide]
activation at 1 µM [3]: 214%

SMILES: CC1CC2CCC(C1)N2c1ccc(=O)n(CC(=O)Nc2ccn3ccnc3c2)n1 (stereo not shown) [Example 237]
activation at 50 µM [2]: 27%

SMILES: CC1CC2CCC(C1)N2c1ccc(=O)n(CC(=O)N2CCc3c(N4CCOCC4)cccc32)n1 (stereo not shown) [Example 238]
activation at 50 µM [2]: 128%

SMILES: Cc1nc(N2CCN(C(=O)Cn3nc(C4=CCC(C)CC4)ccc3=O)CC2)no1 (stereo not shown) [Example 406]
Nav1.1 current amplification rate (%) [2]: 68%

SMILES: CC1CC=C(c2ccc(=O)n(CC(=O)N3CCN(C4CCCOC4)CC3)n2)CC1 (stereo not shown) [Example 408]
Nav1.1 current amplification rate (%) [2]: 80%

SMILES: CC1CC=C(c2ccc(=O)n(CC(=O)N3CCN(C4CCOCC4)CC3)n2)CC1 (stereo not shown) [Example 411]
Nav1.1 current amplification rate (%) [2]: 18%

SMILES: CC1CC=C(c2ccc(=O)n(CC(=O)N3CCN(c4ccn(C)n4)CC3)n2)CC1 (stereo not shown) [Example 412]
Nav1.1 current amplification rate (%) [2]: 36%

Next, values leading:

Nav1.1 current amplification rate (%) [3]: 66%
SMILES: CC1CC=C(c2ccc(=O)n(CC(=O)N3CC=C(c4ccncc4)CC3)n2)CC1 (stereo not shown) [Example 419]

Nav1.1 current amplification rate (%) [1]: 39%
SMILES: CC1CC=C(c2ccc(=O)n(CC(=O)N3CC=C(c4ccccn4)CC3)n2)CC1 (stereo not shown) [Example 420]

Nav1.1 current amplification rate (%) [2]: 29%
SMILES: O=C(Cn1nc(C2=CCCC2)ccc1=O)Nc1ccn2ccnc2c1 [Example 457]

Nav1.1 current amplification rate (%) [3]: 80%
SMILES: O=C(Cn1nc(-c2cc(Cl)cs2)ccc1=O)Nc1ccn2ccnc2c1 [Example 467]

Nav1.1 current amplification rate (%) [1]: 128%
SMILES: O=C(Cn1nc(C2=CCCC2)ccc1=O)N1CCc2c(N3CCOCC3)cccc21 [Example 481]

activation at 1 µM [3]: 28%
SMILES: O=C(Cn1nc(C2=CCCCC2)ccc1=O)Nc1ccn2ncnc2c1 [Example 495]

activation at 1 µM [3]: 37%
SMILES: CC1(C)CC=C(c2ccc(=O)n(CC(=O)Nc3ccn4ncnc4c3)n2)C1 [Example 496]

activation at 1 µM [3]: 43%
SMILES: O=C(Cn1nc(-c2cc(Cl)cs2)ccc1=O)Nc1ccn2ncnc2c1 [Example 497]

activation at 10 µM [1]: 24%
SMILES: N#Cc1ccsc1-c1ccc(=O)n(CC(=O)Nc2ccn3ncnc3c2)n1 [Example 498]

activation at 1 µM [3]: 50%
SMILES: COc1cc(=O)n(CC(=O)Nc2ccn3ncnc3c2)nc1C1=CCC(C)(C)CC1 [Example 499]

activation at 1 µM [3]: 14%
SMILES: COc1cc(=O)n(CC(=O)Nc2ccc3oc(N(C)C)nc3c2)nc1C1=CCC(C)(C)CC1 [Example 500]

activation at 1 µM [3]: 33%
SMILES: Cc1cc(=O)n(CC(=O)Nc2ccc3ncnn3c2)nc1C1=CCC(C)CC1 (stereo not shown) [Example 501]

activation at 1 µM [3]: 27%
SMILES: Cc1cc(=O)n(CC(=O)Nc2ccc3oc(N(C)C)nc3c2)nc1C1=CCC(C)(C)CC1 [Example 504]

activation at 50 µM [2]: 255%
SMILES: Cc1cc(=O)n(CC(=O)Nc2ccn3cnnc3c2)nc1C1=CCC(C)(C)CC1 [Example 505]

activation at 50 µM [2]: 10%
SMILES: CC1(C)CC(c2ccc(=O)n(CC(=O)Nc3ccc(C#N)cc3)n2)=CCO1 [Example 506]

activation at 10 µM [1]: 10%
SMILES: CC1(C)C=C(c2ccc(=O)n(CC(=O)Nc3ccc(C#N)cc3)n2)CCO1 [Example 507]

activation at 1 µM [3]: 135%
SMILES: O=C(Cn1nc(C2=CCCCC2)ccc1=O)N1CCc2c(CN3CCOCC3)cccc21 [Example 519]

activation at 10 µM [1]: 18%
SMILES: O=C(Cn1nc(C2=CCCCO2)ccc1=O)N1CCc2c(-c3ccnnc3)cccc21 [Example 525]

activation at 1 µM [3]: 43%
SMILES: Cc1ccc(Oc2ccc(=O)n(CC(=O)N3CCc4c(-c5ccnnc5)cccc43)n2)cc1 [Example 529]

activation at 50 µM [2]: 9%
SMILES: Cc1ccc(Oc2ccc(=O)n(CC(=O)Nc3ccn4ncnc4c3)n2)cc1 [Example 530]

activation at 10 µM [1]: 22%
SMILES: CC1CC=C(c2ccc(=O)n(CC(=O)NC3CCn4ccnc4C3)n2)CC1 (stereo not shown) [Example 533]

activation at 10 µM [1]: 7%
SMILES: CC1(C)CC=C(c2ccc(=O)n(CC(=O)NC3CCn4ccnc4C3)n2)CC1 (stereo not shown) [Example 534]

activation at 1 µM [4]: 325%
SMILES: COc1cc(=O)n(CC(=O)Nc2ccc3cncnc3c2)nc1C1=CCC(C)(C)CC1 [Example 541]

activation at 1 µM [4]: 154%
SMILES: CC1CC=C(c2ccc(=O)n(CC(=O)Nc3ccc4cccnc4c3)n2)CC1 (stereo not shown) [Example 543]

activation at 1 µM [4]: 208%
SMILES: CC1CC=C(c2ccc(=O)n(CC(=O)Nc3ccc4ccncc4c3)n2)CC1 (stereo not shown) [Example 544]

activation at 1 µM [4]: 223%
SMILES: CC1CC=C(c2ccc(=O)n(CC(=O)Nc3ccc4cnccc4c3)n2)CC1 (stereo not shown) [Example 545]

activation at 1 µM [4]: 59%
SMILES: CC1CC=C(c2ccc(=O)n(CC(=O)Nc3ccc4ncccc4c3)n2)CC1 (stereo not shown) [Example 546]

activation at 1 µM [4]: 70%
SMILES: CC1CC=C(c2ccc(=O)n(CC(=O)Nc3ccc(C#N)cc3F)n2)CC1 (stereo not shown) [Example 547]

activation at 1 µM [4]: 41%
SMILES: CC1CC=C(c2ccc(=O)n(CC(=O)Nc3cnc4ccccc4n3)n2)CC1 (stereo not shown) [Example 548]

activation at 1 µM [4]: 33%
SMILES: CC1CC=C(c2ccc(=O)n(CC(=O)Nc3cccc(N4CCOCC4)c3)n2)CC1 (stereo not shown) [Example 549]

activation at 1 µM [4]: 31%
SMILES: CC1CC=C(c2ccc(=O)n(CC(=O)Nc3ccc4c(O)ncnc4c3)n2)CC1 (stereo not shown) [Example 550]

activation at 10 µM (Concentration 10 μM (Test Result 7)): 16%
SMILES: CC1CC=C(c2ccc(=O)n(CC(=O)Nc3ncc4ccccc4n3)n2)CC1 (stereo not shown) [Example 551]

activation at 1 µM [4]: 24%
SMILES: CC1CC=C(c2ccc(=O)n(CC(=O)Nc3ccn4ncnc4c3F)n2)CC1 (stereo not shown) [Example 552]

activation at 1 µM [4]: 155%
SMILES: O=C(Cn1nc(N2CCC3(CCC3)CC2)ccc1=O)Nc1ccc2cncnc2c1 [Example 553]

activation at 1 µM [4]: 115%
SMILES: CCC1CC=C(c2ccc(=O)n(CC(=O)Nc3ccn4ncnc4c3)n2)CC1 (stereo not shown) [Example 554]
